Earlier results on one compound are cited in PubChem BioAssay AID1259409 (Chemical Carcinogenesis Research Information System (CCRIS), 2018).

The structures appear in SMILES notation.

For this data set, the system named is rodent chemically induced tumor inhibition, incidence and multiplicity. Nature of the data set: CCRIS tumor inhibitor studies. To be noted: Carcinogen: 7,12-DIMETHYLBENZ[A]ANTHRACENE, 57-97-6, Route [Inhibitor]: ORAL, Promoter: NONE USED.

Regarding `O=[Se](O)O`, the “tumour outcome (control, treated, inhibition, significance)” value by setting is: (Dose [Inhibitor]: 1 PPM IN DIET DAILY STARTING 1 WK PRIOR TO CARCINOGEN TREATMENT AND CONTINUING FOR DURATION OF STUDY (STUDY DURATION: 9, Species: MOUSE, Strain/Sex: BD2F1/FEMALE, Target Tissue: Type of Lesion: MAMMARY GLAND: TUMOR, Dose [Carcinogen]: 1 MG IN 0.2 ML COTTONSEED OIL 1/WK FOR 6 WK STARTING AT 8 WK OF AGE) 18/32 (56%), 8/32 (25%), 55%, not calculated; (Dose [Inhibitor]: 1.5 PPM IN 5% CORN OIL DIET DAILY STARTING 29 D BEFORE CARCINOGEN TREATMENT AND CONTINUING FOR DURATION OF STUDY (STUDY, Species: RAT, Strain/Sex: SPRAGUE-DAWLEY/FEMALE, Target Tissue: Type of Lesion: MAMMARY GLAND: ADENOCARCINOMA, Dose [Carcinogen]: 5 MG IN CORN OIL ONCE AT 50 D OF AGE) 12/30 (40%), 9/31 (29%), 28%, not significant; (Dose [Inhibitor]: 1.5 PPM IN 25% CORN OIL DIET DAILY STARTING 29 D BEFORE CARCINOGEN TREATMENT AND CONTINUING FOR DURATION OF STUDY (STUDY, Species: RAT, Strain/Sex: SPRAGUE-DAWLEY/FEMALE, Target Tissue: Type of Lesion: MAMMARY GLAND: ADENOCARCINOMA, Dose [Carcinogen]: 5 MG IN CORN OIL ONCE AT 50 D OF AGE) 21/30 (70%), 16/29 (55%), 21%, not significant; (Dose [Inhibitor]: 2 PPM IN DIET DAILY STARTING 1 WK PRIOR TO CARCINOGEN TREATMENT AND CONTINUING FOR DURATION OF STUDY (STUDY DURATION: 9, Species: MOUSE, Strain/Sex: BALB/FEMALE, Target Tissue: Type of Lesion: MAMMARY GLAND: TUMOR, Dose [Carcinogen]: 1 MG IN 0.2 ML COTTONSEED OIL 1/WK FOR 6 WK STARTING AT 8 WK OF AGE) 11/28 (39%), 2/28 (7%), 82%, not calculated; (Dose [Inhibitor]: 2 PPM IN DIET DAILY STARTING 1 WK PRIOR TO CARCINOGEN TREATMENT AND CONTINUING FOR DURATION OF STUDY (STUDY DURATION: 9, Species: MOUSE, Strain/Sex: BD2F1/FEMALE, Target Tissue: Type of Lesion: MAMMARY GLAND: TUMOR, Dose [Carcinogen]: 1 MG IN 0.2 ML COTTONSEED OIL 1/WK FOR 6 WK STARTING AT 8 WK OF AGE) 18/32 (56%), 5/32 (16%), 71%, not calculated; (Dose [Inhibitor]: 2.5 MG/KG DIET DAILY STARTING 2 WK BEFORE CARCINOGEN TREATMENT AND CONTINUING FOR DURATION OF STUDY (STUDY DURATION: 26, Species: RAT, Strain/Sex: SPRAGUE-DAWLEY/FEMALE, Target Tissue: Type of Lesion: MAMMARY GLAND: ADENOCARCINOMA, Dose [Carcinogen]: 10 MG ONCE AT 50 D OF AGE) 23/25 (92%), 18/25(72%), 22%, not significant. Also, the “tumour outcome (control, treated, inhibition, significance)” value reads like this: (Dose [Inhibitor]: 2.5 MG/KG DIET DAILY STARTING 2 WK BEFORE CARCINOGEN TREATMENT AND CONTINUING FOR DURATION OF STUDY (STUDY DURATION: 27, Species: RAT, Strain/Sex: SPRAGUE-DAWLEY/FEMALE, Target Tissue: Type of Lesion: MAMMARY GLAND: ADENOCARCINOMA, Dose [Carcinogen]: 10 MG ONCE AT 50 D OF AGE) 28/30 (93%), 23/30(77%), 17%, not significant; (Dose [Inhibitor]: 2.5 PPM IN 5% CORN OIL DIET DAILY STARTING 29 D BEFORE CARCINOGEN TREATMENT AND CONTINUING FOR DURATION OF STUDY (STUDY, Species: RAT, Strain/Sex: SPRAGUE-DAWLEY/FEMALE, Target Tissue: Type of Lesion: MAMMARY GLAND: ADENOCARCINOMA, Dose [Carcinogen]: 5 MG IN CORN OIL ONCE AT 50 D OF AGE) 12/30 (40%), 7/29 (24%), 40%, not significant; (Dose [Inhibitor]: 2.5 PPM IN 5% CORN OIL DIET DAILY STARTING 29 D BEFORE CARCINOGEN TREATMENT AND CONTINUING FOR DURATION OF STUDY (STUDY, Species: RAT, Strain/Sex: SPRAGUE-DAWLEY/FEMALE, Target Tissue: Type of Lesion: MAMMARY GLAND: ADENOCARCINOMA, Dose [Carcinogen]: 10 MG IN CORN OIL ONCE AT 50 D OF AGE) 21/30 (70%), 13/29 (45%), 36%, p<0.05; (Dose [Inhibitor]: 2.5 PPM IN 5% CORN OIL DIET DAILY STARTING AT WEANING AND CONTINUING FOR DURATION OF STUDY (STUDY DURATION: 25 WK), Species: RAT, Strain/Sex: SPRAGUE-DAWLEY/FEMALE, Target Tissue: Type of Lesion: MAMMARY GLAND: ADENOCARCINOMA, Dose [Carcinogen]: 5 MG ONCE AT AGE 50 D) 40%, 24%, 40%, not calculated; (Dose [Inhibitor]: 2.5 PPM IN 25% CORN OIL DIET DAILY STARTING 29 D BEFORE CARCINOGEN TREATMENT ANDCONTINUING FOR DURATION OF STUDY (STUDY, Species: RAT, Strain/Sex: SPRAGUE-DAWLEY/FEMALE, Target Tissue: Type of Lesion: MAMMARY GLAND: ADENOCARCINOMA, Dose [Carcinogen]: 5 MG IN CORN OIL ONCE AT 50 D OF AGE) 21/30 (70%), 10/30 (33%), 53%, p<0.01; (Dose [Inhibitor]: 2.5 PPM IN 25% CORN OIL DIET DAILY STARTING AT WEANING AND CONTINUING FOR DURATION OF STUDY (STUDY DURATION: 25 WK), Species: RAT, Strain/Sex: SPRAGUE-DAWLEY/FEMALE, Target Tissue: Type of Lesion: MAMMARY GLAND: ADENOCARCINOMA, Dose [Carcinogen]: 5 MG ONCE AT AGE 50 D) 70%, 33%, 53%, not calculated. Moreover, the “tumour outcome (control, treated, inhibition, significance)” value reads like this: (Dose [Inhibitor]: 2.5 PPM IN HIGH-SATURATED FAT DIET CONTAINING 1% CORN OIL AND 24% HYDROGENATED COCONUT OIL DAILY STARTING AT WEANING AND, Species: RAT, Strain/Sex: SPRAGUE-DAWLEY/FEMALE, Target Tissue: Type of Lesion: MAMMARY GLAND: TUMOR, Dose [Carcinogen]: 5 MG ONCE AT AGE 50 D) 7/25 (28%), 5/25 (20%), 29%, not significant; (Dose [Inhibitor]: 2.5 PPM IN HIGH-SATURATED FAT DIET CONTAINING 1% CORN OIL AND 24% HYDROGENATED COCONUT OIL DAILY STARTING AT WEANING AND, Species: RAT, Strain/Sex: SPRAGUE-DAWLEY/FEMALE, Target Tissue: Type of Lesion: MAMMARY GLAND: TUMOR, Dose [Carcinogen]: 10 MG ONCE AT AGE 50 D) 16/25 (64%), 8/24 (33%), 48%, p<0.05; (Dose [Inhibitor]: 4 MG/KG DIET DAILY FOR 28 WK STARTING 2 WK BEFORE START OF CARCINOGEN TREATMENT AND CONTINUING FOR DURATION OF STUDY (ST, Species: RAT, Strain/Sex: SPRAGUE-DAWLEY/FEMALE, Target Tissue: Type of Lesion: MAMMARY GLAND: TUMOR, Dose [Carcinogen]: 5 MG IN CORN OIL 1/WK FOR 3 WK) 90%, 53%, 41%, p<0.01.
